Broadly, the Ki is the equilibrium dissociation constant of an inhibitor or competing ligand from its target. The low end stands for a stronger hold on the target, the high end for a looser hold on the target. Usually inhibition stands for the change of the read-out against control, counted positive when it falls. A lower inhibition goes with little suppression.

Each structure is given as a SMILES string.

Experiment [1] deals with Glutamate receptor ionotropic, AMPA (Rattus norvegicus, UniProt P19490+P19491+P19492+P19493).
Description: Binding affinity against AMPA receptor in rat brain membrane using [3H]-AMPA as radioligand
In experiment [2] the target is T1, Glutamate receptor ionotropic, AMPA (Rattus norvegicus) (UniProt P19491+P19492+P19493+P19490). The experiment can be described thus: Ability to inhibit [3H]AMPA binding to AMPA receptor in rat whole brain at 1 uM concentration.
In experiment [3] the target is Glutamate receptor ionotropic, kainate. The experiment can be described thus: Binding affinity against kainate receptor in rat brain membrane using [3H]kainate as radioligand. The class given is cell membranes.
The target in experiment [4] is Glutamate NMDA receptor. The experiment can be described thus: Binding affinity of compound against NMDA receptor binding site in rat brain membrane using [3H]glutamate as radioligand. Type of experiment: cell membranes.
Experiment [5] deals with Glutamate NMDA receptor. The experiment can be described thus: Binding affinity of compound against strychnine-insensitive glycine site on NMDA receptor in rat brain membrane using [3H]glycine as radioligand. Type of experiment: cell membranes.
The target in experiment [6] is T1, Glutamate receptor ionotropic, AMPA (Rattus norvegicus). As to the kind of experiment: Ability to inhibit [3H]AMPA binding to AMPA receptor in rat whole brain at 100 uM concentration. Type of experiment: tissue-based.

`O=[N+]([O-])c1cc2nc(O)c(O)nc2cc1-n1cnc2c1CCCC2` yielded a Ki in experiment [1] of 4800 nM.

For the molecule `Nc1cc2nc(O)c(O)nc2cc1-n1ccnc1`, the inhibition in experiment [2] is 16%.

In the case of `O=[N+]([O-])c1cc2nc(O)c(O)nc2cc1-n1cccn1`, affinity in experiment [1] was put at a Ki of 1400 nM.

`O=c1[nH]c2cc(-n3ccnc3)c([N+](=O)[O-])cc2[nH]c1=O` [YM-90K]: the Ki in experiment [3] is 2200 nM; on Glutamate NMDA receptor [4] it was above 100000 nM; at Glutamate NMDA receptor [5] it was 37000 nM; in experiment [1], 84 nM.

On to `Oc1nc2ccc(-n3ccnc3)c(C(F)(F)F)c2nc1O`, for which the inhibition in experiment [2] came out at 10%.

`O=[N+]([O-])c1cc2nc(O)c(O)nc2cc1-c1cccnc1` had a Ki in experiment [1] of 620 nM.

In experiment [1], `Oc1nc2ccc(-n3ccnc3)cc2nc1O` registered a Ki of 1600 nM.

For `O=[N+]([O-])c1cn(-c2cc3nc(O)c(O)nc3cc2[N+](=O)[O-])cn1`, the inhibition constant Ki in experiment [1] came out at 100 nM.

As for `Cc1cc2nc(O)c(O)nc2cc1-n1ccnc1`, the inhibition in experiment [2] stood at 14%.

`Oc1nc2cc(F)c(-n3ccnc3)cc2nc1O` gave an inhibition in experiment [2] of 14%.

Consider `N#Cc1cc2c(cc1[N+](=O)[O-])=NC(=O)C(=O)N=2`, for which the Ki was found to be 1800 nM in experiment [3], 25000 nM at Glutamate NMDA receptor [4] and 5600 nM at Glutamate NMDA receptor [5].

`Cc1cn(-c2cc3nc(O)c(O)nc3cc2[N+](=O)[O-])cn1` returned a Ki in experiment [1] of 180 nM.

Take `O=[N+]([O-])c1cc2nc(O)c(O)nc2cc1-n1cnc(-c2ccccc2)c1`: in experiment [1], the Ki is 230 nM.

For the molecule `O=[N+]([O-])c1cc2nc(O)c(O)nc2cc1-n1cncn1`, the Ki in experiment [1] stood at 240 nM.

As to `Oc1nc2cc(-n3ccnc3)c(-n3ccnc3)cc2nc1O`, in experiment [1], the Ki amounted to 820 nM.

With `CCc1nccn1-c1cc2nc(O)c(O)nc2cc1[N+](=O)[O-]`, in experiment [1], the Ki was 390 nM.

In experiment [1], `O=[N+]([O-])c1cc(-n2ccnc2)cc2nc(O)c(O)nc12` registered a Ki of 1900 nM.

As for `NS(=O)(=O)c1cccc2c1c([N+](=O)[O-])cc1nc(O)c(O)nc12` [NBQX], the Ki at Glutamate NMDA receptor [4] and at Glutamate NMDA receptor [5] was above 100000 nM throughout.

Turning to `O=[N+]([O-])c1cc2nc(O)c(O)nc2cc1-n1cnc2ccccc21`, the affinity in experiment [1], expressed as Ki, was 1300 nM.

Regarding `CC(=O)c1cc2nc(O)c(O)nc2cc1-n1ccnc1`, the inhibition in experiment [2] was found to be 36%.

Molecule `Cc1nccn1-c1cc2nc(O)c(O)nc2cc1[N+](=O)[O-]` showed a Ki in experiment [1] of 430 nM.

As for `Oc1nc2ccccc2nc1O`, the inhibition in experiment [6] is 24%.

The molecule `Oc1nc2cc(-n3ccnc3)c(C(F)(F)F)cc2nc1O` yielded an inhibition constant Ki in experiment [1] of 200 nM.

Molecule `N#Cc1cc2nc(O)c(O)nc2cc1-n1ccnc1` yielded a Ki in experiment [1] of 200 nM.

As to `N#Cc1ccc2nc(O)c(O)nc2c1`, the affinity in experiment [1], expressed as Ki, was 5000 nM.

For the molecule `Cc1ccc2nc(O)c(O)nc2c1`, the inhibition in experiment [6] turned out to be 28%.

In experiment [1], `O=[N+]([O-])c1cc2nc(O)c(O)nc2cc1-c1c[nH]cn1` returned a Ki of 690 nM.

In turn, `O=[N+]([O-])c1ccc2nc(O)c(O)nc2c1` displayed a Ki in experiment [1] of 2000 nM.
